For assay [1], the target named is T1, D2R (Homo sapiens, UniProt P14416). Nature of the assay: [35S]GTPγS binding assay, interaction with dopamine. The format is biochemical. The note with it: composite cooperativity with dopamine.
Assay [2] concerns the target T2, D2LR (Homo sapiens, UniProt P14416). Briefly: ERK1/2 phosphorylation assay, interaction with dopamine. The note with it: for Kb: operational model of allosterism (Equation 5); for activity at the D2R in words: effect on dopamine concentration-response, highest concentration 300 μM. In kind it is cell-based.
The target in assay [3] is T2, D2LR. Nature of the assay: BRET cAMP assay. The format is cell-based. Background: Bioluminescence resonance energy transfer reports proximity on the nanometre scale.
Assay [4] deals with T1, D2R. Nature of the assay: [3H]spiperone binding assay.
The next assay deals with Glu95^2.65Ala D2R (Homo sapiens, UniProt P14416, E95A). Nature of the assay: ERK1/2 phosphorylation assay at mutant D2R. The format is cell-based.
Chain of Glu95^2.65Ala D2R (P14416 whole entry E95A): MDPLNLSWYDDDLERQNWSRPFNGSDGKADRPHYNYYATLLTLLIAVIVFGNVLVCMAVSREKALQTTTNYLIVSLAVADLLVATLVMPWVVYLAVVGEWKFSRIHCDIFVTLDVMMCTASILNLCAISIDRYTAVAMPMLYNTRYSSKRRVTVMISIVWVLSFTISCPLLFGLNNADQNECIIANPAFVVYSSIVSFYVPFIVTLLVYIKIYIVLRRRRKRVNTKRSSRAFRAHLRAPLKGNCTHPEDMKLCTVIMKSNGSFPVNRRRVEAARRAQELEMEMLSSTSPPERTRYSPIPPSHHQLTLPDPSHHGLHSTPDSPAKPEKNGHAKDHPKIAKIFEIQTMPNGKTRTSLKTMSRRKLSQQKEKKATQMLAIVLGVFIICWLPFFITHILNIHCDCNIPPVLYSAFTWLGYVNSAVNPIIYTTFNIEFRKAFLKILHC
In a further assay the target is Val91^2.61Ala D2R (Homo sapiens, UniProt P14416, V91A). Briefly: ERK1/2 phosphorylation assay at mutant D2R. In kind it is cell-based.
Chain of Val91^2.61Ala D2R (P14416 whole entry V91A): as the sequence (P14416 whole entry E95A) above, with V91A, A95E counted along it
The target in assay [5] is T1, D2R. Nature of the assay: Interaction of bitopic ligand 36 with dopamine at the D2R.
[6] abbreviates: WT D2R, binding cooperativity with dopamine.
The mark [7] stands for this setting: Table 3, binding cooperativity with dopamine.
Where [8] appears, read: Table 4, binding cooperativity with dopamine.

T1 sequence (P14416 whole entry): as the sequence (P14416 whole entry E95A) above, with A95E counted along it
T2 sequence (P14416 whole entry): as the sequence (P14416 whole entry E95A) above, with A95E counted along it

In turn, `CN(C)CC[C@H]1CC[C@H](NC(=O)c2cc3ccccc3[nH]2)CC1.Cl` [Compound 9a, N-((trans)-4-(2-(Dimethylamino)ethyl)cyclohexyl)-1H-indole-2-carboxamide hydrochloride] returned a Logαβ on D2R [1] of −0.84 ± 0.15. Further, the αβ on D2R [1] (<1 negative) stood at 0.14. For the same compound, the Kb on D2LR [2] (KB, WT D2R) was 3000 nM. On D2LR [2] (setting [6]), the Logα is listed as −0.61 ± 0.14 and the α was 0.25. On D2LR [2] (WT D2R, modulation of dopamine efficacy, fixed to −100 in the fit), this compound gave a Logβ of −100. Moreover, the Kb at D2LR [2] (pKB, WT D2R) was 2880 nM.
In general, Ki refers to the equilibrium dissociation constant of an inhibitor or competing ligand from its target. Higher therefore signals a looser hold on the target. Consider `CCCN(CCC)CC[C@H]1CC[C@H](NC(=O)c2cc3ccccc3[nH]2)CC1` [Compound 9b, N-((trans)-4-(2-(Dipropylamino)ethyl)cyclohexyl)-1H-indole-2-carboxamide], for which the results for the “mode of action in words” value at D2LR [3] and at D2LR [2] (pERK1/2 assay) were “competitive partial agonist” and “partial agonist”, respectively. Further, the Ki at D2R [4] was 20000 nM.
For `NC(=O)c1cc2ccccc2[nH]1` [Compound 11a, 1H-Indole-2-carboxamide], the “activity at the D2R in words” value on D2LR [2] was “does not exhibit receptor binding”.
The compound `CCNC(=O)c1cc2ccccc2[nH]1` [Compound 11b, N-Ethyl-1H-indole-2-carboxamide] had a Logα at D2LR [2] (setting [7]) of −0.35 ± 0.21.
`CCCNC(=O)c1cc2ccccc2[nH]1` [Compound 11c, N-Propyl-1H-indole-2-carboxamide] came in with a Logα at D2LR [2] (setting [7]) of −0.60 ± 0.09.
Turning to `CCCCNC(=O)c1cc2ccccc2[nH]1` [Compound 11d, N-Butyl-1H-indole-2-carboxamide], the Logα on Glu95^2.65Ala D2R (Table 5, Glu95^2.65Ala) is −1.24 ± 0.17; at D2LR [2] (setting [7]), −1.63 ± 0.11; at D2LR [2] (Table 5, Wild Type) it was −1.63 ± 0.11. Also, the α at Glu95^2.65Ala D2R (Table 5, Glu95^2.65Ala) was 0.05; at D2LR [2] (Table 5, Wild Type) it was 0.02. In addition, the Logβ was 0 at Glu95^2.65Ala D2R (Table 5, Glu95^2.65Ala, no modulation of dopamine efficacy) and −100 at D2LR [2] (Table 5, Wild Type, constrained). Besides, the “decrease in affinity caused by mutation” value on Val91^2.61Ala D2R (Val91^2.61Ala vs WT) came out at 14 fold. Besides, the “increase in affinity compared to 3” value at D2LR [2] amounted to 7 fold. Besides, the “increase in negative cooperativity compared to 3” value on D2LR [2] came to 10 fold.
On D2LR [2] (setting [7]), `C=CCNC(=O)c1cc2ccccc2[nH]1` [Compound 11e, N-Allyl-1H-indole-2-carboxamide] registered a Logα of −0.26 ±0.06.
Turning to `O=C(NCCO)c1cc2ccccc2[nH]1` [Compound 11f, N-(2-Hydroxyethyl)-1H-indole-2-carboxamide], on D2LR [2], the “activity at the D2R in words” value was “inactivity”.
Take `CC(C)(C)NC(=O)c1cc2ccccc2[nH]1` [Compound 11h, N-(tert-Butyl)-1H-indole-2-carboxamide]: on D2LR [2] (setting [7]), the Logα was −0.58 ± 0.13.
Same read-out and setting: the value for `CC(C)N(C(=O)c1cc2ccccc2[nH]1)C(C)C` [Compound 11j, N,N-Diisopropyl-1H-indole-2-carboxamide] was −1.39 ± 0.11; that for `O=C(NC1CCC1)c1cc2ccccc2[nH]1` [Compound 11p, N-Cyclobutyl-1H-indole-2-carboxamide] was −1.77 ± 0.27; that for `O=C(NC1CCCC1)c1cc2ccccc2[nH]1` [Compound 11q, N-Cyclopentyl-1H-indole-2-carboxamide] was −0.63 ± 0.11.
As to `O=C(NC1CCCCC1)c1cc2ccccc2[nH]1` [Compound 11r, N-Cyclohexyl-1H-indole-2-carboxamide], the “activity at the D2R in words” value at D2LR [2] is listed as “no determinable activity”.
Compound `O=C(NN1CCCCC1)c1cc2ccccc2[nH]1` [Compound 11s, N-(Piperidin-1-yl)-1H-indole-2-carboxamide] gave a Logα on D2LR [2] (setting [7]) of −0.53 ± 0.13.
At D2LR [2] (setting [7]), `CC(C)NC(=O)c1[nH]c2ccccc2c1F` [Compound 13a, 3-Fluoro-N-isopropyl-1H-indole-2-carboxamide] displayed a Logα of −0.72 ± 0.35 and a α of 0.19.
As for `CC(C)NC(=O)c1cc2c(F)cccc2[nH]1` [Compound 13b, 4-Fluoro-N-isopropyl-1H-indole-2-carboxamide], the Logα on D2LR [2] (setting [7]) is −1.14 ± 0.10.
Still for that read-out and setting: the value for `CC(C)NC(=O)c1cc2cccc(F)c2[nH]1` [Compound 13e, 7-Fluoro-N-isopropyl-1H-indole-2-carboxamide] was −0.96 ± 0.12.
Turning to `CC(C)NC(=O)c1cc2ccccc2n1C` [Compound 17, N-Isopropyl-1-methyl-1H-indole-2-carboxamide], the “activity at the D2R in words” value on D2LR [2] was “did not show activity”.
On to `CC(C)NC(=O)c1nc2ccccc2[nH]1` [Compound 19, N-Isopropyl-1H-benzo[d]imidazole-2-carboxamide], for which, at D2LR [2] (setting [8]), the Logα is on record as −1.07 ± 0.22.
Consider `CC(C)NC(=O)c1nc2ccccc2o1` [Compound 21, N-Isopropylbenzo[d]oxazole-2-carboxamide], for which the “activity at the D2R in words” value at D2LR [2] is given as “did not show activity”.
Turning to `CC(C)NC(=O)c1csc2ccccc12` [Compound 25b, N-Isopropylbenzo[b]thiophene-3-carboxamide], the “activity at the D2R in words” value on D2LR [2] is “did not show activity”.
With `CC(C)NC(=O)c1cc2cccnc2[nH]1` [Compound 27, N-Isopropyl-1H-pyrrolo[2,3-b]pyridine-2-carboxamide], the “activity at the D2R in words” value on D2LR [2] is listed as “lack of activity”.
In the case of `CC(C)NC(=O)c1cccc2[nH]ccc12` [Compound 30a, N-Isopropyl-1H-indole-4-carboxamide], the “activity at the D2R in words” value on D2LR [2] was “devoid of detectable activity”.
`CC(C)NC(=O)c1ccc2[nH]ccc2c1` [Compound 30b, N-Isopropyl-1H-indole-5-carboxamide]: the Logα on D2LR [2] (setting [8]) is recorded as −1.27 ± 0.3.
The same measure, in the same setting: the value for `CC(C)NC(=O)c1ccc2cc[nH]c2c1` [Compound 30c, N-Isopropyl-1H-indole-6-carboxamide] was −1.1 ± 0.3.
On to `CC(C)NC(=O)c1cccc2cc[nH]c12` [Compound 30d, N-Isopropyl-1H-indole-7-carboxamide], for which, at D2LR [2], the “activity at the D2R in words” value was “devoid of detectable activity”.
For the compound `N#Cc1ccc2c(c1)CN(CCCCNC(=O)c1cc3ccccc3[nH]1)CC2` [Compound 36, N-(4-(7-Cyano-3,4-dihydroisoquinolin-2(1H)-yl)butyl)-1H-indole-2-carboxamide], on D2R [5], the Kb was 81.3 nM and the “increase in affinity as compared to 1” value is reported as 10 fold. The same compound registered a Logαβ on D2R [5] (Figure 7, negative cooperativity with dopamine) of −1.32 ± 0.09.
On to `NCCc1ccc(O)c(O)c1` [dopamine, reference compound], for which the LogτA is reported as 0.71 ± 0.24 at Glu95^2.65Ala D2R (E95A D2R expressing cell line), 0.65 ± 0.19 at Val91^2.61Ala D2R (V91A D2R expressing cell line) and 0.74 ± 0.07 on D2LR [2] (WT D2R expressing cell line).

These data come from publication PMC10823399 (Journal of medicinal chemistry, 2015).
